# Measured values taken from patent publication US7662814B2, “4-aminothieno[2,3-d]pyrimidine-6-carbonitrile derivatives as PDE7 inhibitors” (Laboratorios Almirall, S.A., priority 2003, dated 2010).
row,SMILES,melting point [°C]
1,"CCC(CC)Nc1nc(-c2cc(OC)c(OC)c(OC)c2)nc2sc(C#N)c(C)c12 [Example 73, 4-[(1-Ethylpropyl)amino]-5-methyl-2-(3,4,5-trimethoxyphenyl)thieno[2,3-d]pyrimidine-6-carbonitrile]",226 to 228
2,"C=CCN(C)c1nc(Cc2ccc(OC)c(OC)c2)nc2sc(C#N)c(C)c12 [Example 102, 4-[Allyl(methyl)amino]-2-(3,4-dimethoxybenzyl)-5-methylthieno[2,3-d]pyrimidine-6-carbonitrile]",98 to 100
3,"COc1cc(-c2nc(NC3CCCC3)c3c(C)c(C#N)sc3n2)cc(OC)c1OC [Example 77, 4-(Cyclopentylamino)-5-methyl-2-(3,4,5-trimethoxyphenyl)thieno[2,3-d]pyrimidine-6-carbonitrile]",218 to 220
4,"CCC(C)Nc1nc(-c2cc(OC)c(OC)c(OC)c2)nc2sc(C#N)c(C)c12 (stereo not drawn) [Example 71, 4-(sec-Butylamino)-5-methyl-2-(3,4,5-trimethoxyphenyl)thieno[2,3-d]pyrimidine-6-carbonitrile]",91 to 93
5,"COc1ccc(Cc2nc(N(C)CCO)c3c(C)c(C#N)sc3n2)cc1OC [Example 105, 2-(3,4-Dimethoxybenzyl)-4-[(2-hydroxyethyl)(methyl)amino]-5-methylthieno[2,3-d]pyrimidine-6-carbonitrile]",62 to 63
6,"CCN(CC)c1nc(-c2ccc(OC)c(OC)c2)nc2sc(C#N)c(C)c12 [Example 20, 4-(Diethylamino)-2-(3,4-dimethoxyphenyl)-5-methylthieno[2,3-d]pyrimidine-6-carbonitrile]",159 to 161
7,"CCC(C)Nc1nc(Cc2cc(OC)c(OC)c(OC)c2)nc2sc(C#N)c(C)c12 (stereo not drawn) [Example 114, 4-(sec-Butylamino)-5-methyl-2-(3,4,5-trimethoxybenzyl)thieno[2,3-d]pyrimidine-6-carbonitrile]",134 to 137
8,"CCNc1nc(Cc2ccc(OC)c(OC)c2)nc2sc(C#N)c(C)c12 [Example 95, 2-(3,4-Dimethoxybenzyl)-4-(ethylamino)-5-methylthieno[2,3-d]pyrimidine-6-carbonitrile]",125 to 126
9,"CCN(C)c1nc(-c2cc(OC)c(OC)c(OC)c2)nc2sc(C#N)c(C)c12 [Example 39, 4-[Ethyl(methyl)amino]-5-methyl-2-(3,4,5-trimethoxyphenyl)thieno[2,3-d]pyrimidine-6-carbonitrile]",163 to 164
10,"C=CCN(C)c1nc(-c2cc(OC)c(OC)c(OC)c2)nc2sc(C#N)c(C)c12 [Example 78, 4-[Allyl(methyl)amino]-5-methyl-2-(3,4,5-trimethoxyphenyl)thieno[2,3-d]pyrimidine-6-carbonitrile]",162 to 164
11,"CCN(CC)c1nc(Cc2ccc(OC)c(OC)c2)nc2sc(C#N)c(C)c12 [Example 101, 4-(Diethylamino)-2-(3,4-dimethoxybenzyl)-5-methylthieno[2,3-d]pyrimidine-6-carbonitrile]",107 to 109
12,"Cc1c(C#N)sc2nc(CCc3ccccc3)nc(NC3CCC3)c12 [Example 128, 4-(Cyclobutylamino)-5-methyl-2-(2-phenylethyl)thieno[2,3-d]pyrimidine-6-carbonitrile]",153 to 155
13,"COc1cc(-c2nc(N(C)CCO)c3c(C)c(C#N)sc3n2)cc(OC)c1OC [Example 52, 4-[(2-Hydroxy-ethyl)-methyl-amino]-5-methyl-2-(3,4,5-trimethoxy-phenyl)-thieno[2,3-d]pyrimidine-6-carbonitrile]",164 to 166
14,"COc1cc(-c2nc(NCC(C)C)c3c(C)c(C#N)sc3n2)cc(OC)c1OC [Example 72, 4-(Isobutylamino)-5-methyl-2-(3,4,5-trimethoxyphenyl)thieno[2,3-d]pyrimidine-6-carbonitrile]",182 to 184
15,"COc1cc(-c2nc(NC(C)(C)C)c3c(C)c(C#N)sc3n2)cc(OC)c1OC [Example 74, 4-(tert-Butylamino)-5-methyl-2-(3,4,5-trimethoxyphenyl)thieno[2,3-d]pyrimidine-6-carbonitrile]",195 to 197
16,"CNc1nc(Cc2ccc(OC)c(OC)c2)nc2sc(C#N)c(C)c12 [Example 94, 2-(3,4-Dimethoxybenzyl)-5-methyl-4-(methylamino)thieno[2,3-d]pyrimidine-6-carbonitrile]",161 to 163

# Further lines, results first:
row,melting point [°C],SMILES
1,160 to 171,"C#CCN(C)c1nc(-c2ccc(OC)cc2)nc2sc(C#N)c(C)c12 [Example 24, 2-(4-Methoxyphenyl)-5-methyl-4-[methyl(prop-2-ynyl)amino]thieno[2,3-d]pyrimidine-6-carbonitrile]"
2,205 to 207,"Cc1c(C#N)sc2nc(-c3ccc(Cl)cc3)nc(N3CCOCC3)c12 [Example 23, 2-(4-Chlorophenyl)-5-methyl-4-morpholin-4-ylthieno[2,3-d]pyrimidine-6-carbonitrile]"
3,142 to 144,"Cc1c(C#N)sc2nc(-c3ccccc3)nc(N3CCCCC3)c12 [Example 4, 5-Methyl-2-phenyl-4-piperidin-1-ylthieno[2,3-d]pyrimidine-6-carbonitrile]"
4,125 to 128,CCN(C)c1nc(-c2ccc(C(=O)OC)cc2)nc2sc(C#N)c(C)c12 [Example 57]
5,209 to 210,"Cc1c(C#N)sc2nc(-c3ccc(Cl)cc3)nc(N3CCN(C)CC3)c12 [Example 15, 2-(4-Chlorophenyl)-5-methyl-4-(4-methylpiperazin-1-yl)thieno[2,3-d]pyrimidine-6-carbonitrile]"
6,211 to 213,"COc1cc(-c2nc(N3CCN(C(C)=O)CC3)c3c(C)c(C#N)sc3n2)cc(OC)c1OC [Example 85, 4-(4-Acetylpiperazin-1-yl)-5-methyl-2-(3,4,5-trimethoxyphenyl)thieno[2,3-d]pyrimidine-6-carbonitrile]"
7,133 to 135,"CCN(C)c1nc(-c2ccc(OC)c(OC)c2)nc2sc(C#N)c(C)c12 [Example 26, 2-(3,4-Dimethoxyphenyl)-4-[ethyl(methyl)amino]-5-methylthieno[2,3-d]pyrimidine-6-carbonitrile]"
8,144 to 146,"COc1ccc(-c2nc(N(C)CCO)c3c(C)c(C#N)sc3n2)cc1 [Example 25, 4-[(2-Hydroxyethyl)(methyl)amino]-2-(4-methoxyphenyl)-5-methylthieno[2,3-d]pyrimidine-6-carbonitrile]"
9,101 to 103,"Cc1c(C#N)sc2nc(CCCc3ccccc3)nc(N3CCN(C)CC3)c12 [Example 130, 5-Methyl-4-(4-methylpiperazin-1-yl)-2-(3-phenylpropyl)thieno[2,3-d]pyrimidine-6-carbonitrile]"
10,154 to 156,"CCN(CC)c1nc(-c2ccc(OC)cc2)nc2sc(C#N)c(C)c12 [Example 10, 4-(Diethylamino)-2-(4-methoxyphenyl)-5-methylthieno[2,3-d]pyrimidine-6-carbonitrile]"
11,209 to 214,"COc1cc(-c2nc(-n3cccn3)c3c(C)c(C#N)sc3n2)cc(OC)c1OC [Example 88, 5-Methyl-4-(1H-pyrazol-1-yl)-2-(3,4,5-trimethoxyphenyl)thieno[2,3-d]pyrimidine-6-carbonitrile]"
12,223 to 225,"Cc1c(C#N)sc2nc(-c3ccccc3)nc(N3CCN(C)CC3)c12 [Example 50, 5-Methyl-4-(4-methyl-piperazin-1-yl)-2-phenyl-thieno[2,3-d-]pyrimidine-6-carbonitrile]"
13,207 to 209,"Cc1ccc(-c2nc(N3CCN(C)CC3)c3c(C)c(C#N)sc3n2)cc1 [Example 27, 5-Methyl-2-(4-methylphenyl)-4-(4-methylpiperazin-1-yl)thieno[2,3-d]pyrimidine-6-carbonitrile]"
14,250,"Cc1c(C#N)sc2nc(-c3ccc([N+](=O)[O-])cc3)nc(N3CCNCC3)c12 [Example 13, 5-Methyl-2-(4-nitrophenyl)-4-piperazin-1-ylthieno[2,3-d]pyrimidine-6-carbonitrile]"
15,208 to 210,"COc1cc(-c2nc(-n3nccn3)c3c(C)c(C#N)sc3n2)cc(OC)c1OC [Example 90, 5-Methyl-4-(2H-1,2,3-triazol-2-yl)-2-(3,4,5-trimethoxyphenyl)thieno[2,3-d]pyrimidine-6-carbonitrile]"
16,238 to 240,"COc1cc(-c2nc(-n3ccnc3)c3c(C)c(C#N)sc3n2)cc(OC)c1OC [Example 89, 4-(1H-Imidazol-1-yl)-5-methyl-2-(3,4,5-trimethoxyphenyl)thieno[2,3-d]pyrimidine-6-carbonitrile]"
17,> 250,"COc1cc(-c2nc(N3CCOCC3)c3c(C)c(C#N)sc3n2)cc(OC)c1OC [Example 51, 5-Methyl-4-morpholin-4-yl-2-(3,4,5-trimethoxy-phenyl)-thieno[2,3-d]pyrimidine-6-carbonitrile]"
18,198 to 200,"COc1ccc(-c2nc(N(C)C)c3c(C)c(C#N)sc3n2)cc1OC [Example 46, 2-(3,4-Dimethoxyphenyl)-4-(dimethylamino)-5-methylthieno[2,3-d]pyrimidine-6-carbonitrile]"
19,123 to 125,"COc1ccc(-c2nc(N(C)C)c3c(C)c(C#N)sc3n2)cc1 [Example 21, 4-(Dimethylamino)-2-(4-methoxyphenyl)-5-methylthieno[2,3-d]pyrimidine-6-carbonitrile]"
20,195 to 197,"Cc1c(C#N)sc2nc(-c3ccc4c(c3)OCO4)nc(N(C)CCO)c12 [Example 43, 2-(1,3-Benzodioxol-5-yl)-4-[(2-hydroxyethyl)(methyl)amino]-5-methylthieno[2,3-d]pyrimidine-6-carbonitrile]"
